According to US12729407B2, “Mucins and isoforms thereof in diseases characterized by barrier dysfunction” (priority 2020, dated 2026):
Where two headings read alike, the source gives them in different places.

System: Calu3 cells infected with SARS-CoV-2
Type: cell-based, human
[1] = Calu3 cells, SARS-CoV-2 0.1 MOI 2 h, then drug 48 h, vs untreated infected cells

| Compound | MUC1 mRNA expression [1] | MUC4 mRNA expression [1] | MUC21 mRNA expression [1] | MUC1 mRNA expression | MUC4 mRNA expression | MUC5AC mRNA expression | MUC5B mRNA expression | MUC13 mRNA expression | MUC21 mRNA expression | mucin hypersecretion (mucins of the signature: MUC13, MUC21, MUC16 and MUC1) (concluding remark on the Calu3 drug screen) |
| --- | --- | --- | --- | --- | --- | --- | --- | --- | --- | --- |
| Tocilizumab [toculizumab] | significantly reduce | significantly reduce | significantly reduce | – | – | – | – | – | – | – |
| NC(=O)c1nc(F)c[nH]c1=O [favipiravir] | – | – | – | increase | decrease | decrease | decrease | decrease | decrease | suppress mucin hypersecretion |
